Results: paper PMC7880572 (ACS Chemical Neuroscience, 2021)
Read-outs that look alike come from different tables or passages of the source.

How the values were obtained:
Aβ40 = target: T1, Aβ40 (Homo sapiens, UniProt P05067); assay: Inhibition of self-induced Aβ40 aggregation (ThT fluorescence, HFIP); format: biochemical; conditions: Aβ40 30 μM, mean ± SEM, n = 3; for IC50: 2 h at 25 °C, PBS 2% HFIP, read-out: Aβ40 aggr IC50; for inhibition at 100 µM: read-out: Aβ40 aggr % inhibition
T1 construct: samples of Aβ40 (30 μM) were coincubated for 2 h at 25 °C with test molecules; purchased EzBiolab, Carmel, IN, USA
Procedure: In vitro inhibition of Aβ40 aggregation was assessed following a previously reported thioflavin T (ThT) fluorescence-based method involving the use of hexafluoroisopropanol (HFIP) as aggregation enhancer. […].
In vitro inhibition assay of Aβ40 aggregation has been previously reported[41] and adapted to a 96-well plate platform.
(§1) After incubation in 96-well black, nonbinding microplates (Greiner Bio-One GmbH, Frickenhausen, Germany), thioflavin T (25 μM) was added and fluorimetric reads (ex 440, em 485 nm) were performed in a multiplate reader Infinite M1000 Pro (Tecan, Cernusco sul Naviglio, Italy). Experiments were run in triplicate. Results were expressed by statistical analysis while IC50 values were obtained by nonlinear regression using Prism software (GraphPad Prism version 5.00 for Windows, GraphPad Software, San Diego, CA, USA).

[1] = target: T2, eeAChE (AChE from electric eel) (Electrophorus electricus, UniProt O42275); assay: biochemical; conditions: mean ± SEM, n = 3
T2 construct: purchased Sigma-Aldrich, Milan, Italy

[2] = target: T3, esBChE (BChE from equine serum) (Equus caballus, UniProt P81908); assay: biochemical; conditions: mean ± SEM, n = 3
T3 construct: BChE from horse serum (13 U/mL); purchased Sigma-Aldrich, Milan, Italy; host or cells: horse serum

hMAO A = target: T4, hMAO A (Homo sapiens, UniProt P21397); assay: MAO A inhibition (fluorimetric kynuramine assay); format: biochemical; conditions: mean ± SEM, n = 3
T4 construct: purchased Sigma-Aldrich
T4 sequence (P21397 1-527): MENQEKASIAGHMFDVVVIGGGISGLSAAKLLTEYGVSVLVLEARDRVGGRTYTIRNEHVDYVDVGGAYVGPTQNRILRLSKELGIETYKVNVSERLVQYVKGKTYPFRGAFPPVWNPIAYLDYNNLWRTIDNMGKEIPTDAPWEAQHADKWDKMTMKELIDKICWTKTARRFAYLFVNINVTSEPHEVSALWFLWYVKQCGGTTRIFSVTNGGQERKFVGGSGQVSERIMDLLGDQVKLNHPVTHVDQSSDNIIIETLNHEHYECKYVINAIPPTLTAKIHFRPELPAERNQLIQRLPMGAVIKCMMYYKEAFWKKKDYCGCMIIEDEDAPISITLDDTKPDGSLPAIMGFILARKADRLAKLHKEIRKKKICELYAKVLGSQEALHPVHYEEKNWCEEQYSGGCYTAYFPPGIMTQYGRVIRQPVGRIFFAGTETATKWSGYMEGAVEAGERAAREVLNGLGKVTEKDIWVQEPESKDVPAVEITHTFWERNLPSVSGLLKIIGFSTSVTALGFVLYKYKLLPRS

MAO B [3] = target: T5, MAO B (Homo sapiens, UniProt P27338); assay: MAO B inhibition (fluorimetric kynuramine assay, inhibition kinetics); format: biochemical; conditions: mean ± SEM, n = 3
T5 construct: purchased Sigma-Aldrich
T5 sequence (P27338 1-520): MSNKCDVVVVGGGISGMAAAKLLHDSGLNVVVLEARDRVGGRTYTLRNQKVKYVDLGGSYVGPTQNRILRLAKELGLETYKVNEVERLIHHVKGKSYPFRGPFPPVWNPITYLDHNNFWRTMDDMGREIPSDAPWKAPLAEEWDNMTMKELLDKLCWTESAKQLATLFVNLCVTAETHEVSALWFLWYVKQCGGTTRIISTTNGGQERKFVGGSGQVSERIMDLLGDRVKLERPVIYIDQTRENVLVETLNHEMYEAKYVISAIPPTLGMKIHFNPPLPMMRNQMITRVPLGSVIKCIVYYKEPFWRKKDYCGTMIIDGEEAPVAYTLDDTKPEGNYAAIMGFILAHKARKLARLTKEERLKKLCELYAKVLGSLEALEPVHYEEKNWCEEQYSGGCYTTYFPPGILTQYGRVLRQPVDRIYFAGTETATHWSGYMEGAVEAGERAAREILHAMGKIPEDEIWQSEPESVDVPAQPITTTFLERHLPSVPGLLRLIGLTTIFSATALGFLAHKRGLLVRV

AChE = test system: AChE; design: method as in PMID 25924599; conditions: first series; cited from earlier work
in vitro = conditions: PAMPA, pH 7.4
MAO B [4] = target: T5, MAO B; assay: MAO B kynuramine assay in spectrophotometric mode (4-hydroxyquinoline absorbance at 316 nm), incl. time course; format: biochemical; conditions: 100 nM inhibitor
BChE = test system: BChE; design: method as in PMID 25924599; conditions: first series; cited from earlier work
Aβ42 = target: T6, Aβ42 (Homo sapiens, UniProt P05067); assay: Inhibition of Aβ42 fibrillation by ThT fluorescence assay; format: biochemical; conditions: 100 and 5 μM, Aβ42 30 μM, 37 °C, 48 h
T6 construct: purchased EzBiolab, Carmel, IN, USA
Procedure: Its high propensity to self-aggregate allows a fast execution of aggregation assays without the need of aggregation enhancers as for Aβ40.
Quercetin (QUR) was used as reference compound.
as §1

cerebellar granule cells = assay: In vitro cytotoxicity (MTT); format: cell-based; conditions: CGCs, compound 10 μM, 48 h, mean ± SEM
Procedure: . […] For a more meaningful assessment of the value of the present compounds, the issue of their toxicity, in comparison to established drugs for AD, should deserve further investigation.
Cerebellar granule cells were prepared from 8-day-old Sprague Dawley rats as described previously.[66] Cells were studied from the 6th to the 12th day in vitro. The experimental procedures and care of the animals were performed in compliance with the Directive of the EU Parliament and Council of September 22, 2010 (2010/63/EU) and were approved by the Italian Ministry of Health (COD. 75F11.N.6DX) in accordance with D.M. 116/1992. All efforts were made in order to minimize animal suffering and the number of animals necessary to obtain reliable results.
[…]. Cells were maintained in 5% CO2 at 37 °C. The cell viability was assessed by the MTT assay 48 h after the treatment. […]. The survival rates of viable cells were calculated by comparing the optical absorbance of treated samples with that of the untreated controls. All experiments were repeated at least three times independently, and data are expressed as the mean ± SEM.

[5] = based on the PAMPA-BBB classification range from Di et al.

T3 sequence (P81908 whole entry): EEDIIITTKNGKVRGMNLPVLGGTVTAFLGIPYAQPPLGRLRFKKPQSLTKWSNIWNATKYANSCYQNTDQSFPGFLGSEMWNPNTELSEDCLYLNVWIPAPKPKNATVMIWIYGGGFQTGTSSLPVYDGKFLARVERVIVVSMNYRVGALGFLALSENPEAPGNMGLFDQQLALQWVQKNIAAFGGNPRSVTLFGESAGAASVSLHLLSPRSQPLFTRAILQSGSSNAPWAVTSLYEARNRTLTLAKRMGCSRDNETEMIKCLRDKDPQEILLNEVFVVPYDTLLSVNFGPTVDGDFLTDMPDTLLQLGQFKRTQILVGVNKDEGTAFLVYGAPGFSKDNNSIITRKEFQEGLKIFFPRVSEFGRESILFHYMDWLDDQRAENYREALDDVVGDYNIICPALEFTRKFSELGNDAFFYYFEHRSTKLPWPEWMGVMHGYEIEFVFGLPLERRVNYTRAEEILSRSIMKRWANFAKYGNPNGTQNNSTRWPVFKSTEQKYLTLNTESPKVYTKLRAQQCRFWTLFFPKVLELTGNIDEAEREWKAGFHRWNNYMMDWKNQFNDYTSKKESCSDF
T2 sequence (O42275 24-633): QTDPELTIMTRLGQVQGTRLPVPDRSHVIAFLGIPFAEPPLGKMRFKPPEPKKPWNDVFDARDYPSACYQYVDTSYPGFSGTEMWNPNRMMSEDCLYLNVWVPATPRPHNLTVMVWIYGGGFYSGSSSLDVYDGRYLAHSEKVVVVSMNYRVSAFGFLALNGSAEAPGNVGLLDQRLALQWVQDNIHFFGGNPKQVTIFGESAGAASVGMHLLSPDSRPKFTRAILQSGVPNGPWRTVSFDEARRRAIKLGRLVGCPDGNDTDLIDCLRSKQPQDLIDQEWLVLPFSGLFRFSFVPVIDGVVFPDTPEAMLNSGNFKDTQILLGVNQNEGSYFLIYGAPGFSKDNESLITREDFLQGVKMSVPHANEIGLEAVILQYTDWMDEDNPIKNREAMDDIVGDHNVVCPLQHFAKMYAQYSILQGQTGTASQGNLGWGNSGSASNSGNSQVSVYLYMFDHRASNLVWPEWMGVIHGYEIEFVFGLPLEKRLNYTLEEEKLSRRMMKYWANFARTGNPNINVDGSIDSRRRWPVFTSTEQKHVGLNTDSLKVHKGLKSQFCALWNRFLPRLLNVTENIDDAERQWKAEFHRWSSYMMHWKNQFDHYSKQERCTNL
T1 sequence (P05067 672-711 limits assumed): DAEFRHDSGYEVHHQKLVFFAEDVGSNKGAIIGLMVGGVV
T6 sequence (P05067 672-713 limits assumed): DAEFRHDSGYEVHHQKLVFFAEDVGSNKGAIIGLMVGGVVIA

O=C1C(Cl)=C(NCCn2nnc3ccccc32)C(=O)c2ccccc21 [Compound 7, 2-{[2-(1H-Benzotriazol-1-yl)ethy]amino}-3-chloro-1,4-naphthoquinone]
IC50 (Aβ40): 8.7 ± 0.4 µM
IC50 [1]: 1.7 ± 0.1 µM
inhibition at 10 µM [2]: 15%
inhibition at 10 µM (hMAO A): 21%
IC50 (MAO B [3]): 0.48 ± 0.08 µM

O=C1c2ccccc2C(=O)c2c(NCCc3c[nH]c4ccccc34)cccc21 [Compound 13, 1-{[2-(1H-Indol-3-yl)ethyl]amino}-9,10-anthraquinone]
inhibition at 100 µM (Aβ40): ~60%
IC50 [1]: 1.85 ± 0.04 µM
inhibition at 10 µM [2]: 17%
inhibition at 10 µM (hMAO A): 25%
inhibition at 10 µM (MAO B [3]): 42%

O=C1C(Cl)=C(Nc2ccccc2)C(=O)c2ccccc21 [Compound 1]
inhibition at 100 µM (Aβ40): ~60%
inhibition at 10 µM ([1]; at 10 μM): 39%
inhibition at 10 µM [2]: 8%
inhibition at 10 µM (hMAO A): < 5%
inhibition at 10 µM (MAO B [3]): 22%

O=C1C(Cl)=C(NCCn2cnc3ccccc32)C(=O)c2ccccc21 [Compound 6, 2-[2-(1H-Benzimidazol-1-yl)ethylamino]-3-chloro-1,4-naphthoquinone]
IC50 (Aβ40): 19 ± 4 µM
IC50 [1]: 6.8 ± 0.7 µM
inhibition at 10 µM [2]: 24%
inhibition at 10 µM (hMAO A): 23%
inhibition at 10 µM (MAO B [3]): 24%

O=C1c2ccccc2C(=O)c2c(NCC[C@@H]3CCCN4CCCC[C@H]34)cccc21 [X]
IC50 (AChE): 0.84 µM

O=C1C(Cl)=C(NC(Cc2c[nH]c3ccccc23)C(=O)O)C(=O)c2ccccc21 (centres unmarked) [Compound 9]
IC50 (Aβ40): 14 ± 2 µM
IC50 [1]: 11 ± 1 µM
inhibition at 10 µM [2]: 17%
inhibition at 10 µM (hMAO A): 22%
inhibition at 10 µM (MAO B [3]): 52%

CN(C)CCCN1c2ccccc2Sc2ccc(Cl)cc21 [Chlorpromazine]
Papp at 16 h (in vitro): 7.2 ×10⁻⁶ cm/s

C#CCN(C)Cc1ccccc1 [pargyline, reference compound]
MAO B enzymatic activity in time course (MAO B [4]; 1 h preincubation with enzyme): completely inhibited
time until MAO B enzymatic activity came to saturation (MAO B [4]; no preincubation): about 1 h

O=C1C(Cl)=C(NCCCC2CCCN3CCCCC23)C(=O)c2ccccc21 (centres unmarked) [VI]
IC50 (AChE): 0.011 µM
IC50 (BChE): 12 µM

O=C1c2ccccc2C(=O)c2c(NCc3ccccc3)cccc21 [Compound 10, 1-(Benzylamino)-9,10-anthraquinone]
inhibition at 100 µM (Aβ40): ~60%
IC50 [1]: 8.7 ± 0.5 µM
inhibition at 10 µM [2]: 24%
IC50 (hMAO A): 1.1 ± 0.3 µM
inhibition at 10 µM (MAO B [3]): 34%

CCn1cc(C(=O)O)c(=O)c2cc(F)c(N3CCNCC3)cc21 [Norfloxacin]
Papp at 16 h (in vitro): 0.3 ×10⁻⁶ cm/s

CN1C(C(=O)Nc2ccccn2)=C(O)c2ccccc2S1(=O)=O [Piroxicam]
Papp (in vitro): 1.6 ×10⁻⁶ cm/s

Clc1cccc(Cl)c1N=C1NCCN1 [Clonidine]
Papp at 16 h (in vitro): 5.6 ×10⁻⁶ cm/s

O=c1c(O)c(-c2ccc(O)c(O)c2)oc2cc(O)cc(O)c12 [quercetin, reference compound]
CNS prediction (PAMPA): CNS-
Papp at 16 h (in vitro): 0.14 ± 0.06 ×10⁻⁶ cm/s

O=C1C=C(NC[C@@H]2CCCN3CCCC[C@H]23)C(=O)c2ccccc21 [I]
IC50 (AChE): 5.8 µM

O=C1c2ccccc2C(=O)c2c(SC[C@@H]3CCCN4CCCC[C@H]34)cccc21 [XIV]
IC50 (AChE): 3.8 µM
IC50 (BChE): 3.4 µM

O=C1c2ccccc2C(=O)c2c(NCCn3nnc4ccccc43)cccc21 [Compound 14, 1-{[2-(1H-Benzotriazol-1-yl)ethyl]amino}-9,10-anthraquinone]
IC50 (Aβ40): 11 ± 2 µM
IC50 [1]: 8.1 ± 0.5 µM
IC50 [2]: 3.4 ± 0.2 µM
inhibition at 10 µM (hMAO A): 53%
IC50 (MAO B [3]): 0.98 ± 0.14 µM
inhibition of Aβ42 aggregation (activity profile) (Aβ42): best activity profile

O=C1C(Cl)=C(NCCCc2ccccc2)C(=O)c2ccccc21 [Compound 4, 2-Chloro-3-(phenylpropylamino)-1,4-naphthoquinone]
IC50 (Aβ40): 8.2 ± 0.3 µM
IC50 [1]: 3.5 ± 0.3 µM
inhibition at 10 µM [2]: 35%
IC50 (hMAO A): 3 ± 0.2 µM
IC50 (MAO B [3]): 0.054 ± 0.001 µM

O=C1c2ccccc2C(=O)c2c(NCCCSC[C@@H]3CCCN4CCCC[C@H]34)cccc21 [XII]
IC50 (BChE): 1.1 µM

O=C1C(Cl)=C(NCCc2c[nH]c3ccccc23)C(=O)c2ccccc21 [Compound 5]
IC50 (Aβ40): 6.6 ± 0.1 µM
IC50 [1]: 8.7 ± 0.8 µM
inhibition at 10 µM [2]: 29%
IC50 (hMAO A): 5 ± 0.2 µM
IC50 (MAO B [3]): 0.11 ± 0.01 µM
cell viability vs control (%) (cerebellar granule cells): 85 ± 14%
CNS prediction [5]: CNS+
Papp at 16 h (in vitro): 14.3 ± 1.3 ×10⁻⁶ cm/s

O=C1C(Cl)=C(NC(Cc2ccccc2)C(=O)O)C(=O)c2ccccc21 (centres unmarked) [Compound 8]
IC50 (Aβ40): 17 ± 2 µM
IC50 [1]: 13 ± 2 µM
inhibition at 10 µM [2]: 14%
inhibition at 10 µM (hMAO A): 26%
IC50 (MAO B [3]): 2.7 ± 0.8 µM
CNS prediction [5]: CNS+
Papp at 16 h (in vitro): 6.1 ± 0.4 ×10⁻⁶ cm/s

CCn1cc(C(=O)O)c(=O)c2cc(F)c(N3CCNC(C)C3)c(F)c21 (centres unmarked) [Lomefloxacin]
Papp at 16 h (in vitro): 1.5 ×10⁻⁶ cm/s

NCCc1ccc(O)c(O)c1 [Dopamine]
Papp at 16 h (in vitro): 0.6 ×10⁻⁶ cm/s

CC(=O)[C@H]1CC[C@H]2[C@@H]3CCC4=CC(=O)CC[C@]4(C)[C@H]3CC[C@]12C [Progesterone]
Papp at 16 h (in vitro): 11.7 ×10⁻⁶ cm/s
